Measured values published in patent US7118872B2, “Binding polypeptides for B lymphocyte stimulator protein (BLyS)” (priority 2000, dated 2006).
Positions of bridges follow the written chain, without caps; N, C: chain ends. Residues, ends and D or L forms follow the SMILES beside them. No end group written: not given here.

What follows are compounds tested against BLyS (Homo sapiens, UniProt Q9Y275) (assay: Chromatographic screening of immobilized BLyS binding polypeptides (affinity media)). Conditions: peptide immobilized on SEPHAROSE 4 Fast Flow.
Description: A reversed phase analytical assay was used in the assessment of the chromatographic performance of the six affinity media.
All columns were tested at 200 μl/min (170 cm/hr) using a Watson/Marlow 101 ru peristaltic pump. This setup allowed free use of numerous wash, protein and elution conditions. Detection was made using a Waters 2487 UV/VIS detector at 214 nm and 280 nm connected to a Waters Millennium workstation.
The columns were then tested with an array of possible elution conditions and monitored at 214 nm and 280 nm for release of BLyS. Fractions indicating possible BLyS elution based on UV absorbance were collected and analyzed by reversed phase chromatography for confirmation.

Chain of BLyS (Q9Y275 134-285 limits assumed): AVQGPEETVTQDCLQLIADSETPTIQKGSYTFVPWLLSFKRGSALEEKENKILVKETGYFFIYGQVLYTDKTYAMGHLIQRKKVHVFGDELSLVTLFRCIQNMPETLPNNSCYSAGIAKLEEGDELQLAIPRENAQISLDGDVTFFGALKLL

**Q.** With `CC(=O)N[C@@H](C)C(=O)NCC(=O)N[C@H](C(=O)N1CCC[C@H]1C(=O)N[C@@H](Cc1ccccc1)C(=O)N[C@H]1CSSC[C@@H](C(=O)N[C@@H](Cc2ccccc2)C(=O)N[C@@H](CCC(=O)O)C(=O)N[C@@H](C)C(=O)NCC(=O)N2CCC[C@H]2C(=O)NCC(=O)N2CCC[C@H]2C(=O)N[C@@H](CCC(=O)O)C(=O)NCC(=O)NCC(=O)NCC(=O)N[C@@H](CCCCN)C(=O)O)NC(=O)[C@H](Cc2c[nH]cn2)NC(=O)[C@H](CCCCN)NC(=O)[C@H]([C@@H](C)O)NC(=O)[C@H](CC(C)C)NC(=O)[C@H](CC(C)C)NC(=O)[C@H](CC(=O)O)NC1=O)C(C)C` [DX214] (Ac-AGVPFCDLLTKHCFEAGPGPEGGGK-OH; disulfide 6-13; C-terminus assumed) as the compound, how does the “release of BLyS from affinity media (elution condition)” value (“release of BLyS from affinity media” for short) read?
**A.** would only release BLyS in the presence of pH 2 buffer

**Q.** With `CSCC[C@@H]1NC(=O)[C@H](Cc2c[nH]cn2)NC(=O)[C@@H](NC(=O)[C@H](CC(C)C)NC(=O)[C@H](CCCNC(=N)N)NC(=O)[C@H](CO)NC(=O)[C@H](CO)NC(=O)CNC(C)=O)CSSC[C@@H](C(=O)N[C@H](C(=O)N[C@@H](Cc2c[nH]cn2)C(=O)N[C@@H](Cc2ccccc2)C(=O)N[C@@H](C)C(=O)N2CCC[C@H]2C(=O)N2CCC[C@H]2C(=O)NCC(=O)N2CCC[C@H]2C(=O)N[C@@H](CCC(=O)O)C(=O)NCC(=O)NCC(=O)NCC(=O)N[C@@H](CCCCN)C(=O)O)C(C)C)NC(=O)[C@H](C(C)C)NC(=O)[C@H](Cc2c[nH]cn2)NC(=O)[C@H]([C@@H](C)O)NC(=O)[C@H](CC(C)C)NC(=O)[C@H](CCC(=O)O)NC(=O)[C@H](CC(=O)O)NC1=O` [DX216] (Ac-GSSRLCHMDELTHVCVHFAPPGPEGGGK-OH; disulfide 6-15; C-terminus assumed) as the compound, how does the “release of BLyS from affinity media” value read?
**A.** would only release BLyS in the presence of pH 2 buffer

**Q.** For `CSCC[C@H](NC(=O)[C@@H]1CSSC[C@H](NC(=O)[C@H](CC(N)=O)NC(=O)CNC(=O)CNC(=O)[C@H](CC(=O)O)NC(=O)CNC(C)=O)C(=O)N[C@@H](Cc2ccc(O)cc2)C(=O)N[C@@H]([C@@H](C)O)C(=O)N[C@@H](CC(=O)O)C(=O)N[C@@H](CO)C(=O)N[C@@H](CC(C)C)C(=O)N[C@@H]([C@@H](C)O)C(=O)N[C@@H](CCCCN)C(=O)N[C@@H](CC(C)C)C(=O)N[C@@H](Cc2c[nH]cn2)C(=O)N[C@@H](Cc2ccccc2)C(=O)N1)C(=O)NCC(=O)N[C@@H](CC(=O)O)C(=O)N[C@@H](CCC(=O)O)C(=O)N1CCC[C@H]1C(=O)NCC(=O)N1CCC[C@H]1C(=O)N[C@@H](CCC(=O)O)C(=O)NCC(=O)NCC(=O)NCC(=O)N[C@@H](CCCCN)C(=O)O` [DX217] (Ac-GDGGNCYTDSLTKLHFCMGDEPGPEGGGK-OH; disulfide 6-17; C-terminus assumed), which “release of BLyS from affinity media” value is on record?
**A.** would only release BLyS in the presence of pH 2 buffer

**Q.** For Ac-WTDSLTGLWFPDGGPGPEGGGK [DX221], which “release of BLyS from affinity media” value is on record?
**A.** would only release BLyS in the presence of pH 2 buffer

**Q.** Which “release of BLyS from affinity media” value does the source give for `CC(=O)N[C@@H](C)C(=O)NCC(=O)N[C@@H](CCCCN)C(=O)N[C@@H](CCC(=O)O)C(=O)N1CCC[C@H]1C(=O)N[C@H]1CSSC[C@@H](C(=O)N[C@@H](C)C(=O)N[C@H](C(=O)N[C@@H](CO)C(=O)NCC(=O)N2CCC[C@H]2C(=O)NCC(=O)N2CCC[C@H]2C(=O)N[C@@H](CCC(=O)O)C(=O)NCC(=O)NCC(=O)NCC(=O)N[C@@H](CCCCN)C(=O)O)C(C)C)NC(=O)[C@H](CCC(=O)O)NC(=O)[C@H](Cc2c[nH]c3ccccc23)NC(=O)[C@H](Cc2ccc(O)cc2)NC(=O)[C@H](Cc2ccccc2)NC(=O)[C@H](Cc2ccc(O)cc2)NC1=O` [DX212] (Ac-AGKEPCYFYWECAVSGPGPEGGGK-OH; disulfide 6-12; C-terminus assumed) here?
**A.** released BLyS with good recoveries on elution with 50% ethylene glycol, pH 4

**Q.** Which “release of BLyS from affinity media” value does the source give for Ac-GYDVLTKLYFVPGGPGPEGGGK [DX219] here?
**A.** would only release BLyS in the presence of pH 2 buffer
